Experimental data reported in PubChem BioAssay (NCI).
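Growth conditions: 96-well plates. Treatment: test compound, 48 hours, 5 concentrations. Analysis: linear interpolation between bracketing concentrations; unreached endpoints set to highest concentration. TGI marks complete inhibition of growth.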

What was measured:
Assay in all cases: NCI tumour cell line growth inhibition, 48 h
A498 renal = system: A498 renal
A549 NSCLC = system: A549 NSCLC
CCRF-CEM leukemia = system: CCRF-CEM leukemia
COLO 205 colon = system: COLO 205 colon
DLD-1 colon = system: DLD-1 colon
DMS 114 small cell lung = system: DMS 114 small cell lung
DMS 273 small cell lung = system: DMS 273 small cell lung
EKVX NSCLC = system: EKVX NSCLC
HCC-2998 colon = system: HCC-2998 colon
HCT-116 colon = system: HCT-116 colon
HCT-15 colon = system: HCT-15 colon
HL-60(TB) leukemia = system: HL-60(TB) leukemia
HOP-18 NSCLC = system: HOP-18 NSCLC
HOP-62 NSCLC = system: HOP-62 NSCLC
HOP-92 NSCLC = system: HOP-92 NSCLC
HT29 colon = system: HT29 colon
IGROV1 ovarian = system: IGROV1 ovarian
K-562 leukemia = system: K-562 leukemia
KM12 colon = system: KM12 colon
KM20L2 colon = system: KM20L2 colon
LOX IMVI melanoma = system: LOX IMVI melanoma
M19-MEL melanoma = system: M19-MEL melanoma
MALME-3M melanoma = system: MALME-3M melanoma
MCF7 breast = system: MCF7 breast
MOLT-4 leukemia = system: MOLT-4 leukemia
NCI-H226 lung = system: NCI-H226 lung
NCI-H23 lung = system: NCI-H23 lung
NCI-H460 lung = system: NCI-H460 lung
NCI-H522 lung = system: NCI-H522 lung
NCI/ADR-RES ovarian = system: NCI/ADR-RES ovarian
OVCAR-3 ovarian = system: OVCAR-3 ovarian
OVCAR-4 ovarian = system: OVCAR-4 ovarian
OVCAR-5 ovarian = system: OVCAR-5 ovarian
OVCAR-8 ovarian = system: OVCAR-8 ovarian
P388 leukemia = system: P388 leukemia
P388/ADR leukemia = system: P388/ADR leukemia
RPMI-8226 leukemia = system: RPMI-8226 leukemia
RXF 393 renal = system: RXF 393 renal
SF-268 CNS = system: SF-268 CNS
SF-295 CNS = system: SF-295 CNS
SF-539 CNS = system: SF-539 CNS
SK-MEL-2 melanoma = system: SK-MEL-2 melanoma
SK-MEL-28 melanoma = system: SK-MEL-28 melanoma
SK-MEL-5 melanoma = system: SK-MEL-5 melanoma
SK-OV-3 ovarian = system: SK-OV-3 ovarian
SN12C renal = system: SN12C renal
SN12K1 renal = system: SN12K1 renal
SNB-19 CNS = system: SNB-19 CNS
SNB-75 CNS = system: SNB-75 CNS
SNB-78 CNS = system: SNB-78 CNS
SW-620 colon = system: SW-620 colon
U251 CNS = system: U251 CNS
UACC-257 melanoma = system: UACC-257 melanoma
UACC-62 melanoma = system: UACC-62 melanoma
UO-31 renal = system: UO-31 renal
XF 498 CNS = system: XF 498 CNS

Q: Which results are given for O=[N+]([O-])c1ccc2[nH]c3c(-c4ccccc4)nccc3c2c1?
A: TGI (A498 renal): > 100 µM; TGI (A549 NSCLC): > 62 µM; TGI (CCRF-CEM leukemia): 62.7 µM; TGI (COLO 205 colon): > 86.8 µM; TGI (DLD-1 colon): > 94.3 µM; TGI (DMS 114 small cell lung): > 87.2 µM; TGI (DMS 273 small cell lung): 18.1 µM; TGI (EKVX NSCLC): > 79.3 µM; TGI (HCC-2998 colon): 71 µM; TGI (HCT-116 colon): > 51.8 µM; TGI (HCT-15 colon): > 74.7 µM; TGI (HL-60(TB) leukemia): 26.4 µM; TGI (HOP-18 NSCLC): 61.9 µM; TGI (HOP-62 NSCLC): 43 µM; TGI (HOP-92 NSCLC): 65.9 µM; TGI (HT29 colon): > 100 µM; TGI (IGROV1 ovarian): 48.6 µM; TGI (K-562 leukemia): > 100 µM; TGI (KM12 colon): > 100 µM; TGI (KM20L2 colon): > 100 µM; TGI (LOX IMVI melanoma): > 100 µM; TGI (M19-MEL melanoma): > 78.4 µM; TGI (MALME-3M melanoma): 50.7 µM; TGI (MCF7 breast): > 60.3 µM; TGI (MOLT-4 leukemia): 16.4 µM; TGI (NCI-H226 lung): 50.5 µM; TGI (NCI-H23 lung): > 100 µM; TGI (NCI-H460 lung): 40.9 µM; TGI (NCI-H522 lung): 37.4 µM; TGI (NCI/ADR-RES ovarian): > 65.1 µM; TGI (OVCAR-3 ovarian): 39.4 µM; TGI (OVCAR-4 ovarian): > 63.1 µM; TGI (OVCAR-5 ovarian): > 100 µM; TGI (OVCAR-8 ovarian): > 58.7 µM; TGI (P388 leukemia): > 47.3 µM; TGI (P388/ADR leukemia): 31.4 µM; TGI (RPMI-8226 leukemia): > 100 µM; TGI (RXF 393 renal): > 96.2 µM; TGI (SF-268 CNS): > 80 µM; TGI (SF-295 CNS): 45.7 µM; TGI (SF-539 CNS): > 100 µM; TGI (SK-MEL-2 melanoma): 76.6 µM; TGI (SK-MEL-28 melanoma): > 85.3 µM; TGI (SK-MEL-5 melanoma): > 61.1 µM; TGI (SK-OV-3 ovarian): 55.7 µM; TGI (SN12C renal): > 84.6 µM; TGI (SN12K1 renal): 79.9 µM; TGI (SNB-19 CNS): 58.5 µM; TGI (SNB-75 CNS): 38.3 µM; TGI (SNB-78 CNS): 93.1 µM; TGI (SW-620 colon): > 89.7 µM; TGI (U251 CNS): > 64.9 µM; TGI (UACC-257 melanoma): 89.4 µM; TGI (UACC-62 melanoma): 38.6 µM; TGI (UO-31 renal): 44.4 µM; TGI (XF 498 CNS): > 61.7 µM

Q: Which results are given for CCCCCOc1ccc(C=Nc2ccc(-c3ccc(N=Cc4ccc(OCCCCC)cc4)c(OC)c3)cc2OC)cc1?
A: TGI (A498 renal): > 100 µM; TGI (A549 NSCLC): > 100 µM; TGI (CCRF-CEM leukemia): > 100 µM; TGI (COLO 205 colon): > 100 µM; TGI (DLD-1 colon): > 100 µM; TGI (DMS 114 small cell lung): > 100 µM; TGI (DMS 273 small cell lung): > 100 µM; TGI (EKVX NSCLC): > 100 µM; TGI (HCC-2998 colon): > 100 µM; TGI (HCT-116 colon): > 100 µM; TGI (HCT-15 colon): > 100 µM; TGI (HL-60(TB) leukemia): > 100 µM; TGI (HOP-18 NSCLC): > 100 µM; TGI (HOP-62 NSCLC): > 100 µM; TGI (HOP-92 NSCLC): > 100 µM; TGI (HT29 colon): > 100 µM; TGI (IGROV1 ovarian): > 100 µM; TGI (K-562 leukemia): > 31.6 µM; TGI (KM12 colon): > 100 µM; TGI (KM20L2 colon): > 100 µM; TGI (LOX IMVI melanoma): > 100 µM; TGI (M19-MEL melanoma): > 100 µM; TGI (MALME-3M melanoma): > 100 µM; TGI (MCF7 breast): > 100 µM; TGI (MOLT-4 leukemia): > 100 µM; TGI (NCI-H226 lung): > 100 µM; TGI (NCI-H23 lung): > 100 µM; TGI (NCI-H460 lung): > 100 µM; TGI (NCI-H522 lung): > 100 µM; TGI (NCI/ADR-RES ovarian): > 100 µM; TGI (OVCAR-3 ovarian): > 100 µM; TGI (OVCAR-4 ovarian): > 31.6 µM; TGI (OVCAR-5 ovarian): > 100 µM; TGI (OVCAR-8 ovarian): > 100 µM; TGI (P388 leukemia): > 100 µM; TGI (RPMI-8226 leukemia): > 100 µM; TGI (RXF 393 renal): > 100 µM; TGI (SF-268 CNS): > 100 µM; TGI (SF-295 CNS): > 100 µM; TGI (SF-539 CNS): > 100 µM; TGI (SK-MEL-2 melanoma): > 100 µM; TGI (SK-MEL-28 melanoma): > 100 µM; TGI (SK-MEL-5 melanoma): > 100 µM; TGI (SK-OV-3 ovarian): > 100 µM; TGI (SN12C renal): > 100 µM; TGI (SN12K1 renal): > 100 µM; TGI (SNB-19 CNS): > 100 µM; TGI (SNB-75 CNS): > 100 µM; TGI (SNB-78 CNS): > 100 µM; TGI (SW-620 colon): > 100 µM; TGI (U251 CNS): > 100 µM; TGI (UACC-257 melanoma): > 100 µM; TGI (UACC-62 melanoma): > 100 µM; TGI (UO-31 renal): > 100 µM; TGI (XF 498 CNS): > 100 µM
